From US11730714B2, “Compounds for the treatment of neuromuscular disorders” (NMD PHARMA A/S, priority 2017, dated 2023)

What was measured:
[1] = molecular target: T1, CIC-1 channels (Rattus norvegicus, UniProt P35524); experiment: Electrophysiological measurement of compound inhibition of CIC-1 in rat muscle (Gm, EC50); assay type: cell-based; conditions: rat soleus muscle fibres, three micro-electrode Gm measurement; read-out: EC50 (inhibition of ClC-1 ion channel, Gm)
T1 construct: Gm was measured in individual fibres of whole rat soleus muscles; from tissue; host or cells: soleus muscle of adult (12-14 week old) Wistar rats
T1 sequence (P35524 1-994): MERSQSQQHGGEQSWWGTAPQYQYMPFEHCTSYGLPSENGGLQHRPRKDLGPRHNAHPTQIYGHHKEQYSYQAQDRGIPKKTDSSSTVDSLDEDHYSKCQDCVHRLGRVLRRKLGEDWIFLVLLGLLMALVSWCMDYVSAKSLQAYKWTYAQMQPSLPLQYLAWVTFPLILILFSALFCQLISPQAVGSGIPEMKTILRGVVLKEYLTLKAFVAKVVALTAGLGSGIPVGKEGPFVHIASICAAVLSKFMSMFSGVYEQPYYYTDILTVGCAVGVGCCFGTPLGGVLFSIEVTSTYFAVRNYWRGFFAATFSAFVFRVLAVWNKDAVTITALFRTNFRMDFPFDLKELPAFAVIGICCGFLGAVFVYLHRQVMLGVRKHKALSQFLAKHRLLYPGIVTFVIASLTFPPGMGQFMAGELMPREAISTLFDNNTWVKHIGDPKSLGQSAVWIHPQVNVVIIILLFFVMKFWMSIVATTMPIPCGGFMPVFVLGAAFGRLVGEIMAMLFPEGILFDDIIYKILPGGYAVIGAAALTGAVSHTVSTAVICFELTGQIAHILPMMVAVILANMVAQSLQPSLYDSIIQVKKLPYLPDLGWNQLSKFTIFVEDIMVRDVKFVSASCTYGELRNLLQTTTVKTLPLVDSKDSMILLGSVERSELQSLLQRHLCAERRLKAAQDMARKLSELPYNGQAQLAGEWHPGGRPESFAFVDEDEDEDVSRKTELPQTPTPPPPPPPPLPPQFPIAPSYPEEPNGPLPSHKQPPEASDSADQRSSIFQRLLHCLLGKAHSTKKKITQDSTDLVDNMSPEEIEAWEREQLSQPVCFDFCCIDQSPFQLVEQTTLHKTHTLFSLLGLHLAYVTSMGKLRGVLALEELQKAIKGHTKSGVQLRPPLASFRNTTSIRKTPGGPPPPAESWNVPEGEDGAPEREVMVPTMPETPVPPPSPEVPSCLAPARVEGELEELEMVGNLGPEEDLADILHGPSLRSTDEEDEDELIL

[2] = test system: isolated human muscles; assay type: cell-based; conditions: 150 μM C8; elevated extracellular K+ and low dose TTX
[3] = Pharmacokinetic analysis of C8 in rats, single I.P. dose; assay type: in vivo, rat; conditions: one-bolus I.P. injection
Experimental: This part of the study was performed by Pipeline Biotech A/S (Spørring, Denmark). […] Plasma concentrations (free and bound) were determined by OnTarget Chemistry (Uppsala, Sweden, Project No.: PB243-001).
Before conducting in vivo experiments with animal models of myasthenia gravis, some pharmacokinetic details were obtained for C8 in response to one-bolus I.P. injection.

[4] = test system: rats injected with MAB35; experiment: Rotarod running performance in passive myasthenia gravis induced in rats with MAB35 antibody; assay type: in vivo, rat; conditions: after stable reduction in performance by MAB35, vs sham
Experimental: FIG. 10. […] Prior to I.P. injection of MAB35 the animals had been familiarized to the rotarod over three training sessions distributed over two days. […] After this treatment performance was monitored every second hour. *Indicates significant different as evaluated using student t-test.
In both series of experiments, running performance was tested on a rotarod using a protocol where the rod was accelerated gradually over a 5 min period, and the running time and covered distance before falling off the rod were measured. […] Experiments with tubocurarine were carried out over two days, and on each day the effect of tubocurarine on running performance was tested. On the first day only tubocurarine was injected. […] On the second day, the animals were first allowed to run on the rotarod, and all animals performed normally. […] The allocation of the animals into the two groups (C8 or sham) was random and unknown to the experimenter (blinded experimental design).
In experiments with MAB35, animals were first familiarized with the rotarod over two consecutive days and then injected I.P. with MAB35. After injection, rotarod performance was then again monitored regularly over the consecutive two days. […] A considerable number of animals, however, became moribund failing to walk and they had altered ventilation (rapid) and pronounced ptosis. These animals were not included in experiments. […]

[5] = test system: rat soleus muscles; experiment: Mg2+ concentration required to depress nerve-stimulated force by 50% (Kd,Mg2+), combination with 3,4-AP; assay type: cell-based; conditions: combination of C8 and 3,4-diaminopyridine; elevated extracellular Mg2+
Experimental: FIGS. 6A-6E. […] Muscles from 4-week-old rats were stimulated to contract by activating the motor nerve with short duration pulses in field stimulation. Muscles contracted every 10 min for 2 s in response to 30 Hz stimulation. Four different experimental conditions were used. […] C) similar to A) but this muscle had been pre-incubated with 3,4-AP. […] The force integral (AUC) was determined at each extracellular Mg^2+ concentration. AUC was plotted against Mg^2+ concentration and the data was fitted to a sigmoidal function. This provided the extracellular Mg^2+ concentration that was required to reduce the nerve-stimulated force to 50% (Mg50) under the four different conditions (see Table 5).
While the use of tubocurarine mimics conditions with reduced neuromuscular transmission due to post-synaptic dysfunction (myasthenia gravis, neuromuscular blockade), the experiments with elevated extracellular Mg^2+ mimics conditions with pre-synaptic dysfunction akin to a range of neuromuscular disorders including Lambert Eaton syndrome, motor neuron disorders and polyneuropathy. […] Based on this it was determined whether recovery of nerve-stimulated force at elevated extracellular Mg^2+ with CIC-1 inhibiting compounds could be added to force recovery with 3,4-AP. […] To quantify the effect of compounds on Mg^2+ sensitivity the force at the different Mg^2+ concentrations was determined. […]

Molecule | EC50 [1] [µM] | contractile force [2] | Cl_obs [3] [mL/h] | VD_obs [3] [mL] | rotarod performance after injection ([4]; C8 20 mg/kg) | rotarod performance after injection ([4]; C8 30 mg/kg) | effect on recovery of neuromuscular transmission [5]
(2S)-2-(4-bromophenoxy)(2-^2H)butanoic acid [Compound A-60] | 7.5 ± 1 | – | – | – | – | – | –
C[C@H](Oc1ccc(Br)cc1)C(=O)O [Compound C8, (2S)-2-(4-bromophenoxy)propanoic acid] | – | markedly recovery | 48.69 | 259.62 | decline was reduced | clear recovery of performance | unexpected synergistic effect
